{
  "source": "patent US11325944B2",
  "about": "(priority 2017, dated 2022)",
  "origin": "cited, not measured here",
  "key": {"[1]": {"tested_on": "KOR"}, "[2]": {"target": "KOR (Homo sapiens, UniProt P41145)", "sequence (P41145 whole entry)": "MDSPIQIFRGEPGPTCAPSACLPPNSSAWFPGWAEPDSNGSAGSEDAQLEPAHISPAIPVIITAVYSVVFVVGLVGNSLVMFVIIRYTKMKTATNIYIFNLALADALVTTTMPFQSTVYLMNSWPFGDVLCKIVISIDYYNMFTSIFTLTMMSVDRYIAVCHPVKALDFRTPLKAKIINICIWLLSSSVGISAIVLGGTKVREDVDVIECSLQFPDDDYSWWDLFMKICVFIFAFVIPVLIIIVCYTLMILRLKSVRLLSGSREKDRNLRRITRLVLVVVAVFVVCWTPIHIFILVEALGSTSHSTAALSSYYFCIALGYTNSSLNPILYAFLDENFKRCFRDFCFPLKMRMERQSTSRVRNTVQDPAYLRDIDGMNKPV"}, "[3]": {"target": "DOR", "details": "δ opioid receptor, CHO cell membranes; read-out: Kd of radioligand"}},
  "note": "[ ]: non-standard residue; d: D form.",
  "data": [
    {"substance": "cyclo [CJ-15,208, cyclo [Phe-D-Pro-Phe-Trp]]", "values": [
      {"measurement": "agonist (antinociceptive) activity in vivo", "setting": "[1]", "result": "mild agonist (antinociceptive) activity"}
    ]},
    {"substance": "cyclo(F[dP]F[dW]) [[D-Trp]CJ-15,208]", "values": [
      {"measurement": "selectivity for KOR over MOR and DOR", "setting": "[2]", "result": "selective activity against the kappa opioid receptor (KOR) over mu opioid receptors (MOR) and delta opioid receptors (DOR)"},
      {"measurement": "KOR antagonism in vitro", "setting": "[2]; in vitro", "result": "antagonize KOR in vitro"},
      {"measurement": "KOR antagonism", "setting": "[1]; in vivo", "result": "exhibited KOR antagonism"}
    ]},
    {"substance": "cyclo[D-Pen^2, D-Pen]enkephalin [[^3H]-DPDPE]", "values": [
      {"measurement": "Kd", "setting": "[3]", "result": 1.76, "unit": "nM"}
    ]}
  ]
}
